{"source": "patent US8461122B2", "about": "“Derivatives of morphine-6-glucuronide, preparation method thereof and use of same in therapeutics” (Sanofi, priority 2008, dated 2013)", "system": "male Swiss mice", "conditions": "tail-flick; for ED50 60 min. post-administration: Table 2 (sc); for Duration of action / % MPE max: subcutaneous", "description": "Tests consisting in measuring the in vivo activity of the compounds of the invention on a nociceptive reflex response were performed. In this approach, the latency of the animal's nociceptive reflex response is measured as a pain indicator.\nThe analgesic activity was determined by means of the “tail-flick” test in male Swiss mice (Iffa Credo). This test is based on the spontaneous nociceptive reflex of removal of the animal's tail caused by a painful heat stimulus (infrared source). The “tail-flick” test (D'Amour-Smith test, 1941, Pharmacol. Exp. Ther.; 72: 74-79) consists, after administering a product, in placing a mouse's tail at the focal point of the infrared source so as to produce a nociceptive heat stimulus (surface temperature of about 55-60° C.). The mouse's reaction time (RT) (latency between the moment when the light beam is switched on and the moment when the mouse removes its tail) was measured in duplicate at different times ranging from 20 minutes to 120 minutes after administration of the product. The heat intensity is regulated such that this removal reflex is between 0.5 and 3.5 seconds in the control animals, and arbitrarily represents the criterion for minimum analgesia (0%). Two reaction time measurements were taken before administration of the product for each mouse, to establish a baseline measurement time. A maximum time of 8 seconds was chosen as the maximum reaction time so as not to induce tissue damage by burning the animals, and arbitrarily represents the criterion for maximum analgesia (100%). The reaction time is increased by the analgesics relative to a control animal not receiving any treatment. The products were administered subcutaneously and orally at doses of between 1.25 and 30 mg/kg (expressed as salt).\nThe percentage of analgesic activity (% MPE) is determined by the following formula: % MPE=(RTpost-administration−RTpre-administration)*100/(RTmax−RTpre-administration)", "key": {"[1]": {"conditions": "dose 1.25 mg/kg (expressed as salt)"}, "[2]": {"conditions": "dose 10 mg/kg (expressed as salt)"}}, "note": "Where two headings read alike, the source gives them in different places.", "data": [{"compound": "CN1CC[C@]23c4c5ccc(O)c4O[C@H]2[C@@H](O[C@@H]2O[C@H](c4nn[nH]n4)[C@@H](O)[C@H](O)[C@H]2O)C=C[C@H]3[C@H]1C5.O=C(O)C(F)(F)F", "note": "[Compound 2, Morphin-6-yl 5-C-(tetrazol-5-yl)-β-d-xylopyranoside trifluoroacetate]", "values": [{"measurement": "ED50 60 min. post-administration", "value": "<1.25", "unit": "mg/kg"}, {"measurement": "Duration of action", "setting": "dose 1.25 mg/kg", "value": ">120 (1.25) minutes"}, {"measurement": "% MPE max", "setting": "[1]", "value": "100 (1.25) %"}]}, {"compound": "Cc1nnc(C2O[C@H](O[C@H]3C=C[C@H]4[C@H]5Cc6ccc(O)c7c6[C@@]4(CCN5C)[C@H]3O7)[C@H](O)[C@@H](O)[C@@H]2O)o1.O=C(O)C(F)(F)F", "note": "(stereo partly drawn) [Compound 4, Morphin-6-yl 5-C-(2-methyl-1,3,4-oxadiazol-5-yl)-α-D-xylopyranoside trifluoroacetate]", "values": [{"measurement": "ED50 60 min. post-administration", "value": 8, "unit": "mg/kg"}, {"measurement": "Duration of action", "setting": "dose 10 mg/kg", "value": "90 (10) minutes"}, {"measurement": "% MPE max", "setting": "[2]", "value": "65 (10) %"}]}, {"compound": "Cc1nnc(C2O[C@@H](O[C@H]3C=C[C@H]4[C@H]5Cc6ccc(O)c7c6[C@@]4(CCN5C)[C@H]3O7)[C@H](O)[C@@H](O)[C@@H]2O)o1.O=C(O)C(F)(F)F", "note": "(stereo partly drawn) [Compound 5, Morphin-6-yl 5-C-(2-methyl-1,3,4-oxadiazol-5-yl)-β-D-xylopyranoside trifluoroacetate]", "values": [{"measurement": "ED50 60 min. post-administration", "value": "<1.25", "unit": "mg/kg"}, {"measurement": "ED50 at 60 minutes", "setting": "oral, 60 minutes", "value": "less than 2.5 mg/kg"}, {"measurement": "percentage of maximum analgesic activity (% MPE max index)", "setting": "oral, dose 10 mg/kg", "value": 78, "unit": "%"}, {"measurement": "Duration of action", "setting": "dose 1.25 mg/kg", "value": ">120 (1.25) minutes"}, {"measurement": "% MPE max", "setting": "[1]", "value": "100 (1.25) %"}]}, {"compound": "Morphin-6-yl 5-C-(2-methyl-1,3,4-oxadiazol-5-yl)-α/β-D-xylopyranoside trifluoroacetate [Compound 3]", "values": [{"measurement": "ED50 60 min. post-administration", "value": 3.2, "unit": "mg/kg"}, {"measurement": "Duration of action", "setting": "dose 5 mg/kg", "value": ">120 (5) minutes"}, {"measurement": "% MPE max", "setting": "dose 5 mg/kg (expressed as salt)", "value": "100 (5) %"}]}, {"compound": "Morphin-6-yl 5-C-(tetrazol-5-yl)-αβ-D-xylopyranoside trifluoroacetate [Compound 1]", "values": [{"measurement": "ED50 60 min. post-administration", "value": 10, "unit": "mg/kg"}, {"measurement": "Duration of action", "setting": "dose 10 mg/kg", "value": ">120 (10) minutes"}, {"measurement": "% MPE max", "setting": "[2]", "value": "50 (10) %"}]}]}
